The supplement of paper PMC4862054

Experiments:
Details in all cases: incubation time: 72 h
BT-474 = test: normalised viability (% of control), CellTiter-Blue; higher = more viable cells (100 = DMSO, 0 = benzethonium chloride kill control)
Protocol: (§1)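 DSRT, CellTiter-Blue viability, 72 h incubation. Signal is normalised to DMSO and benzethonium chloride controls. Value is the normalised response at dose 1.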

BT-549 = test: as above
Protocol: as §1

CAL-120 = test: as above
Protocol: as §1

CAL-148 [1] = test: as above
Protocol: as §1

CAL-51 [2] = test: as above
Protocol: as §1

CAL-85-1 [3] = test: as above
Protocol: as §1

DU-4475 [4] = test: as above
Protocol: as §1

HCC1143 = test: as above
Protocol: as §1

HCC1599 [5] = test: as above
Protocol: as §1

HCC1937 = test: as above
Protocol: as §1

HDQ-P1 [6] = test: as above
Protocol: as §1

Hs578T = test: as above
Protocol: as §1

MDA-MB-231 [7] = test: as above
Protocol: as §1

MDA-MB-436 [8] = test: as above
Protocol: as §1

MDA-MB-453 [9] = test: as above
Protocol: as §1

MDA-MB-468 = test: as above
Protocol: as §1

MFM-223 [10] = test: as above
Protocol: as §1

SK-BR-3 = test: as above
Protocol: as §1

CAL-148 [11] = test: drug sensitivity score (DSS), CellTox Green (DSS (AUC-based score)); higher = stronger drug effect (viability inhibition or cytotoxicity); extreme values may be limits of the assay
Summary of the method: (§2)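 Each compound occupied 5 concentrations in 10-fold steps over its own 10,000-fold range in 384-well plates, into which breast cancer cell lines were seeded as 20 µl suspension. Following 72 h of incubation, CellTox Green fluorescence (485/520 nm) was measured, and CellTiter-Glo luminescence was measured after 10 min at room temperature. Plates were individually normalised to 0.1 % DMSO and a positive kill control. From the area under the fitted dose-response curve, a drug sensitivity score was calculated.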

CAL-51 [12] = test: as above
Summary of the method: as §2

CAL-85-1 [13] = test: as above
Summary of the method: as §2

DU-4475 [14] = test: as above
Summary of the method: as §2

HCC1599 [15] = test: as above
Summary of the method: as §2

HDQ-P1 [16] = test: as above
Summary of the method: as §2

MDA-MB-231 [17] = test: as above
Summary of the method: as §2

MDA-MB-436 [18] = test: as above
Summary of the method: as §2

MDA-MB-453 [19] = test: as above
Summary of the method: as §2

MFM-223 [20] = test: as above
Summary of the method: as §2

SMILES: Cc1ccc(Nc2nccc(N(C)c3ccc4c(C)n(C)nc4c3)n2)cc1S(N)(=O)=O [Pazopanib]
- normalised viability (BT-474; 1 nM): 93.2%
- normalised viability (BT-549; 1 nM): 110%
- normalised viability (CAL-120; 1 nM): 78.5%
- normalised viability (CAL-148 [1]; 1 nM): 89.3%
- normalised viability (CAL-51 [2]; 1 nM): 103%
- normalised viability (CAL-85-1 [3]; 1 nM): 93.6%
- normalised viability (DU-4475 [4]; 1 nM): 98.9%
- normalised viability (HCC1143; 1 nM): 87.1%
- normalised viability (HCC1599 [5]; 1 nM): 103%
- normalised viability (HCC1937; 1 nM): 77.9%
- normalised viability (HDQ-P1 [6]; 1 nM): 72.8%
- normalised viability (Hs578T; 1 nM): 94.8%
- normalised viability (MDA-MB-231 [7]; 1 nM): 97.7%
- normalised viability (MDA-MB-436 [8]; 1 nM): 95.8%
- normalised viability (MDA-MB-453 [9]; 1 nM): 106%
- normalised viability (MDA-MB-468; 1 nM): 106%
- normalised viability (MFM-223 [10]; 1 nM): 90%
- normalised viability (SK-BR-3; 1 nM): 105%
- drug sensitivity score (CAL-148 [11]): 0
- drug sensitivity score (CAL-51 [12]): 0
- drug sensitivity score (CAL-85-1 [13]): 0.186
- drug sensitivity score (DU-4475 [14]): 0
- drug sensitivity score (HCC1599 [15]): 0
- drug sensitivity score (HDQ-P1 [16]): 0
- drug sensitivity score (MDA-MB-231 [17]): 0
- drug sensitivity score (MDA-MB-436 [18]): 0
- drug sensitivity score (MDA-MB-453 [19]): 0
- drug sensitivity score (MFM-223 [20]): 0

SMILES: O=C(CCBr)N1CCN(C(=O)CCBr)CC1 [Pipobroman]
- normalised viability (BT-474; 1 nM): 98.9%
- normalised viability (BT-549; 1 nM): 83.2%
- normalised viability (CAL-120; 1 nM): 89.1%
- normalised viability (CAL-148 [1]; 1 nM): 115%
- normalised viability (CAL-51 [2]; 1 nM): 112%
- normalised viability (CAL-85-1 [3]; 1 nM): 96%
- normalised viability (DU-4475 [4]; 1 nM): 111%
- normalised viability (HCC1143; 1 nM): 94.7%
- normalised viability (HCC1599 [5]; 1 nM): 103%
- normalised viability (HCC1937; 1 nM): 87.4%
- normalised viability (HDQ-P1 [6]; 1 nM): 99.3%
- normalised viability (Hs578T; 1 nM): 95.3%
- normalised viability (MDA-MB-231 [7]; 1 nM): 97.8%
- normalised viability (MDA-MB-436 [8]; 1 nM): 107%
- normalised viability (MDA-MB-453 [9]; 1 nM): 108%
- normalised viability (MDA-MB-468; 1 nM): 95%
- normalised viability (MFM-223 [10]; 1 nM): 82.8%
- normalised viability (SK-BR-3; 1 nM): 92.1%
- drug sensitivity score (CAL-148 [11]): 0
- drug sensitivity score (CAL-51 [12]): 0
- drug sensitivity score (CAL-85-1 [13]): 0
- drug sensitivity score (DU-4475 [14]): 0
- drug sensitivity score (HCC1599 [15]): 0
- drug sensitivity score (HDQ-P1 [16]): 0
- drug sensitivity score (MDA-MB-231 [17]): 0
- drug sensitivity score (MDA-MB-436 [18]): 0
- drug sensitivity score (MDA-MB-453 [19]): 0
- drug sensitivity score (MFM-223 [20]): 0

SMILES: c1cc(CN2CCCNCCNCCCNCC2)ccc1CN1CCCNCCNCCCNCC1 [Plerixafor]
- normalised viability (BT-474; 0.25 nM): 84%
- normalised viability (BT-549; 0.25 nM): 86.8%
- normalised viability (CAL-120; 0.25 nM): 90%
- normalised viability (CAL-148 [1]; 0.25 nM): 87.3%
- normalised viability (CAL-51 [2]; 0.25 nM): 103%
- normalised viability (CAL-85-1 [3]; 0.25 nM): 84.2%
- normalised viability (DU-4475 [4]; 0.25 nM): 105%
- normalised viability (HCC1143; 0.25 nM): 90.9%
- normalised viability (HCC1599 [5]; 0.25 nM): 107%
- normalised viability (HCC1937; 0.25 nM): 82.5%
- normalised viability (HDQ-P1 [6]; 0.25 nM): 104%
- normalised viability (Hs578T; 0.25 nM): 104%
- normalised viability (MDA-MB-231 [7]; 0.25 nM): 93.8%
- normalised viability (MDA-MB-436 [8]; 0.25 nM): 110%
- normalised viability (MDA-MB-453 [9]; 0.25 nM): 129%
- normalised viability (MDA-MB-468; 0.25 nM): 96.5%
- normalised viability (MFM-223 [10]; 0.25 nM): 99%
- normalised viability (SK-BR-3; 0.25 nM): 91.5%
- drug sensitivity score (CAL-148 [11]): 0
- drug sensitivity score (CAL-51 [12]): 0
- drug sensitivity score (CAL-85-1 [13]): 0
- drug sensitivity score (DU-4475 [14]): 0
- drug sensitivity score (HCC1599 [15]): 0
- drug sensitivity score (HDQ-P1 [16]): 0
- drug sensitivity score (MDA-MB-231 [17]): 0
- drug sensitivity score (MDA-MB-436 [18]): 0
- drug sensitivity score (MDA-MB-453 [19]): 0
- drug sensitivity score (MFM-223 [20]): 0

SMILES: CC[C@@]1(O)C(=O)OCc2c1cc1n(c2=O)Cc2cc3c(CN(C)C)c(O)ccc3nc2-1 [Topotecan]
- normalised viability (BT-474; 0.1 nM): 111%
- normalised viability (BT-549; 0.1 nM): 96.1%
- normalised viability (CAL-120; 0.1 nM): 85.9%
- normalised viability (CAL-148 [1]; 0.1 nM): 103%
- normalised viability (CAL-51 [2]; 0.1 nM): 92.5%
- normalised viability (CAL-85-1 [3]; 0.1 nM): 85.5%
- normalised viability (DU-4475 [4]; 0.1 nM): 102%
- normalised viability (HCC1143; 0.1 nM): 98.3%
- normalised viability (HCC1599 [5]; 0.1 nM): 90.8%
- normalised viability (HCC1937; 0.1 nM): 81.5%
- normalised viability (HDQ-P1 [6]; 0.1 nM): 115%
- normalised viability (Hs578T; 0.1 nM): 110%
- normalised viability (MDA-MB-231 [7]; 0.1 nM): 98.6%
- normalised viability (MDA-MB-436 [8]; 0.1 nM): 99.9%
- normalised viability (MDA-MB-453 [9]; 0.1 nM): 110%
- normalised viability (MDA-MB-468; 0.1 nM): 107%
- normalised viability (MFM-223 [10]; 0.1 nM): 100%
- normalised viability (SK-BR-3; 0.1 nM): 92.4%
- drug sensitivity score (CAL-148 [11]): 24.6
- drug sensitivity score (CAL-51 [12]): 19.5
- drug sensitivity score (CAL-85-1 [13]): 7.11
- drug sensitivity score (DU-4475 [14]): 0
- drug sensitivity score (HCC1599 [15]): 2.71
- drug sensitivity score (HDQ-P1 [16]): 0.486
- drug sensitivity score (MDA-MB-231 [17]): 10.2
- drug sensitivity score (MDA-MB-436 [18]): 8.04
- drug sensitivity score (MDA-MB-453 [19]): 0
- drug sensitivity score (MFM-223 [20]): 2.66
